This passage reports Ki, stoichiometry N and relative activity results from publication PMC8191317, “Structural and functional analysis of lignostilbene dioxygenases from Sphingobium sp. SYK-6” (The Journal of Biological Chemistry, 2021).

For one experiment, the target named is T1, LSD4 (Sphingobium sp. SYK-6, UniProt Z9AM74RXJ0).
T1 construct: residues 2-489 modelled; Fe2+ enzyme, Co-LSD4 for complexes
T1 sequence (Z9AM74RXJ0 1-489): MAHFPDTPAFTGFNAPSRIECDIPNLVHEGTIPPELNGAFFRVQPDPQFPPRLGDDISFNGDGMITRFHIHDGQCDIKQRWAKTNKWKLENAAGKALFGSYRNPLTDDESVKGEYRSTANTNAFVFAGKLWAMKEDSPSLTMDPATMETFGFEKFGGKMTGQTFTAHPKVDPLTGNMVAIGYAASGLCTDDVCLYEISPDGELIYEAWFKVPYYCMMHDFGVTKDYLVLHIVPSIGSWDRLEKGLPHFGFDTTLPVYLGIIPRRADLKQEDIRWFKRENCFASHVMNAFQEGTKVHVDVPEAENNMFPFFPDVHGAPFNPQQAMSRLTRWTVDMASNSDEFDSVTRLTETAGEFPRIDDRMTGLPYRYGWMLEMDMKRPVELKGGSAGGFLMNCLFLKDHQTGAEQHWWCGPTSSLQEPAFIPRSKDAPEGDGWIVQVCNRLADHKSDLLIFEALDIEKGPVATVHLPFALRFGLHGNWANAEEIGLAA
Briefly: O2 electrode (oxygraph) inhibition kinetics. Format: biochemical. Particulars: read-out: Kic.

In experiment [1] the target is LSD4 (lignostilbene-α,β-dioxygenase 4) from Sphingobium sp. SYK-6 (Sphingobium sp. SYK-6). In words: SEC-MALS; LSD4 at 2 mg/ml in 20 mM HEPES, pH 7.5, 100 mM NaCl, Superdex 75 10/300 GL, 0.4 ml/min, room temperature. In general terms: In gel filtration, larger molecules generally elute earlier.
A further experiment concerns the target T2, LSD2 (Sphingobium sp. SYK-6, UniProt G2IQG5).
T2 construct: gene SLG_36640; pET41b, E. coli BL21(DE3) lysate, co-produced with GroEL/GroES
T2 sequence (G2IQG5 1-490): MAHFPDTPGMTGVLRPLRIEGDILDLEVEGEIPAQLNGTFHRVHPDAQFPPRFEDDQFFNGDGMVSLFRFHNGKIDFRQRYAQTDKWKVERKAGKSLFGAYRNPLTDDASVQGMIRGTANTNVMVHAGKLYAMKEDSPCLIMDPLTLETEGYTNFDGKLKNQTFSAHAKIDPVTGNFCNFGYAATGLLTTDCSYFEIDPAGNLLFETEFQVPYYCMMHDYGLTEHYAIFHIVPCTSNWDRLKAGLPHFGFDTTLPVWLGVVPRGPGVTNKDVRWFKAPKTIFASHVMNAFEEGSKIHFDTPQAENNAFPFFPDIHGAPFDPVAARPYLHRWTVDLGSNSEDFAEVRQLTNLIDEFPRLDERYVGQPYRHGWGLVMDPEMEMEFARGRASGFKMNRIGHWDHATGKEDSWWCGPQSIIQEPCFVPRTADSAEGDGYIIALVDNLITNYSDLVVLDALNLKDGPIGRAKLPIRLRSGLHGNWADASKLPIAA
In words: oxygraph O2 consumption, E. coli lysate. In kind it is biochemical. Particulars: 100 μM substrate.

In the next experiment the target is T3, LSD3 (Sphingobium sp. SYK-6, UniProt G2IPX7).
T3 construct: gene SLG_11300; pET41b, E. coli BL21(DE3) lysate
T3 sequence (G2IPX7 1-491): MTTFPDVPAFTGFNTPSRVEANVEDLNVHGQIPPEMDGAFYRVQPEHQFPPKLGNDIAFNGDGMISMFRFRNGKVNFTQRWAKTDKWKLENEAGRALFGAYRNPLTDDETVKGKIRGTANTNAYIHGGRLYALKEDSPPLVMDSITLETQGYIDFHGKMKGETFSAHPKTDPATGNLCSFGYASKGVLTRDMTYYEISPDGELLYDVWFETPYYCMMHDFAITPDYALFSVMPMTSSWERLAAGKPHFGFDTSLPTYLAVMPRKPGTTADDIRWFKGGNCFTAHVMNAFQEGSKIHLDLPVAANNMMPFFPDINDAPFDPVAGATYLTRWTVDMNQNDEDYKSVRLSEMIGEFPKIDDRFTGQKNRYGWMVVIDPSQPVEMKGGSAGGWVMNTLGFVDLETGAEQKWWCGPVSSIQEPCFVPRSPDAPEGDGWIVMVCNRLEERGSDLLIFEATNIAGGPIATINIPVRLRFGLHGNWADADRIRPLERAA
In words: oxygraph O2 consumption, E. coli lysate. Particulars: 100 μM substrate. In kind it is biochemical.

For the next experiment, the target named is T4, LSD1 (Sphingobium sp. SYK-6, UniProt G2IR63).
T4 construct: gene SLG_37540; pET41b, E. coli BL21(DE3) lysate, co-produced with GroEL/GroES
T4 sequence (G2IR63 1-486): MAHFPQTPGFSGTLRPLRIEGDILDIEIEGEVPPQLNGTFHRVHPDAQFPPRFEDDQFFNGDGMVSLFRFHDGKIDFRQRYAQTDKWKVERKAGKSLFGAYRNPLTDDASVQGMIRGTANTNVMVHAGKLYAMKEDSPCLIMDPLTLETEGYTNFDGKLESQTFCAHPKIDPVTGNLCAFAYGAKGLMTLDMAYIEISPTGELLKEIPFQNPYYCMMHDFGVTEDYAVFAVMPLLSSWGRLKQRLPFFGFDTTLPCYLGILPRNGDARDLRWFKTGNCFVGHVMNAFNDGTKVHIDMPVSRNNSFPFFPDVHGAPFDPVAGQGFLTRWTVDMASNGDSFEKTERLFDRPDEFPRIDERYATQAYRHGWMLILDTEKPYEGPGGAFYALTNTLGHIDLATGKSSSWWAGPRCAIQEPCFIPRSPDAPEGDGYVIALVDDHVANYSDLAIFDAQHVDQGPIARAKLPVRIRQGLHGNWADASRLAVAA
Briefly: oxygraph O2 consumption, E. coli lysate. Format: biochemical. Particulars: 100 μM substrate.

For a further experiment, the target named is T5, LSD6 (Sphingomonas paucimobilis, UniProt Q8RQW2).
T5 construct: gene lsdA; pET41b, E. coli BL21(DE3) lysate
T5 sequence (Q8RQW2 1-491): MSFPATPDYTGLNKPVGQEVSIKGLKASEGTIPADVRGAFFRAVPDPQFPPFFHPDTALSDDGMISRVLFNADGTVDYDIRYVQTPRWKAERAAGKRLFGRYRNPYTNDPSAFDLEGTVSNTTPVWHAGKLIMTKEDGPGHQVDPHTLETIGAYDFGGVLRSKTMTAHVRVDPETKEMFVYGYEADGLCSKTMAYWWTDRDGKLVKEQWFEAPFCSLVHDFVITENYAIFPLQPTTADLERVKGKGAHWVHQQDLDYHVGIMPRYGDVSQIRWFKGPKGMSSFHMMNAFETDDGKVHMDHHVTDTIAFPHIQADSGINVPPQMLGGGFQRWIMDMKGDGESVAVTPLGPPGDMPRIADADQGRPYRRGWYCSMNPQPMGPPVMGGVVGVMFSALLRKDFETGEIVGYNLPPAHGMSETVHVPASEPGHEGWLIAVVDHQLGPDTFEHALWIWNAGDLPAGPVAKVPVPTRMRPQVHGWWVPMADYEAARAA
Briefly: oxygraph O2 consumption, E. coli lysate. Format: biochemical. Particulars: 100 μM substrate.

For another experiment, the target named is T6, LSD5 (Sphingobium sp. SYK-6, UniProt G2IKS0).
T6 construct: gene SLG_27970; pET41b, E. coli BL21(DE3) lysate
T6 sequence (G2IKS0 1-492): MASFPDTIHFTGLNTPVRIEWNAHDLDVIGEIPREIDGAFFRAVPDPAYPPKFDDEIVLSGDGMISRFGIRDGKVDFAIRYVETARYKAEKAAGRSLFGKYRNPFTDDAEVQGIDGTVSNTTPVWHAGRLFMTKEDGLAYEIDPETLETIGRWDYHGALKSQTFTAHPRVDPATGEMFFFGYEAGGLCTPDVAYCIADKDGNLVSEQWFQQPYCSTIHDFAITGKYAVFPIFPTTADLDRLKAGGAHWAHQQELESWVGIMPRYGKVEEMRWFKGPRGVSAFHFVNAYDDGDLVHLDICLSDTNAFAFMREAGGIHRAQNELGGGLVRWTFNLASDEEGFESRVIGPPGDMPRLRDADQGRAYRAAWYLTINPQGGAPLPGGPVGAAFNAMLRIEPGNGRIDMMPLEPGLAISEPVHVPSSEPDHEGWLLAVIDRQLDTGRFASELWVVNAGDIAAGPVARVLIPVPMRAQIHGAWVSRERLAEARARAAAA
In words: oxygraph O2 consumption, E. coli lysate. Format: biochemical. Particulars: 100 μM substrate.

The target in the next experiment is T7, LSD7 (Sphingobium sp. SYK-6, UniProt G2INY0).
T7 construct: gene SLG_09440; pET41b, E. coli BL21(DE3) lysate
T7 sequence (G2INY0 1-483): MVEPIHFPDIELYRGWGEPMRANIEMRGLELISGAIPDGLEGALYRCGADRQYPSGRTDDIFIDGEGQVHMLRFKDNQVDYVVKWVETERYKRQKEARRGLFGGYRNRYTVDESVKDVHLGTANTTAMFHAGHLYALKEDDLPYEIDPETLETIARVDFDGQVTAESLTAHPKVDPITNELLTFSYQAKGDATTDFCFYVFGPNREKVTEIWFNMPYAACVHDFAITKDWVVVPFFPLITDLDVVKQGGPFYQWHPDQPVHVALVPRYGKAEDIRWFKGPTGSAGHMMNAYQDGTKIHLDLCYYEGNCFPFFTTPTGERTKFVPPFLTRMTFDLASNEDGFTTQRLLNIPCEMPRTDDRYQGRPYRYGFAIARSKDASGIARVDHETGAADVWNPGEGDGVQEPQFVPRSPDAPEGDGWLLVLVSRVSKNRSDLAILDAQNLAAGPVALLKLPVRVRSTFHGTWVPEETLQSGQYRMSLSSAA
Briefly: oxygraph O2 consumption, E. coli lysate. In kind it is biochemical. Particulars: 100 μM substrate.

As usually defined, the stoichiometry N is a count of units in the complex or per binding partner.

With `COc1cc(C=O)ccc1O` [vanillin], the Ki at LSD4 worked out at 30 ± 8 µM.
In experiment [1], “LSD4 (lignostilbene-α,β-dioxygenase 4) from Sphingobium sp. SYK-6 (enzyme)” displayed a stoichiometry N of 2.
As for `COc1cc(/C=C/c2cc(/C=C/C(=O)O)cc(OC)c2O)ccc1O` [compound 1, 3-(4-hydroxy-3-(4-hydroxy-3-methoxystyryl)-5-methoxyphenyl) acrylate], the relative activity result on LSD2 is “lysates containing LSD2, LSD3, or LSD4 preferentially cleaved DCA-S over lignostilbene”; at LSD3, “lysates containing LSD2, LSD3, or LSD4 preferentially cleaved DCA-S over lignostilbene”.
Turning to `COc1cc(/C=C/c2ccc(O)c(OC)c2)ccc1O` [compound 2, lignostilbene], the relative activity entry on LSD1 was “cell lysates containing LSD1, LSD5, LSD6, or LSD7 preferentially cleaved lignostilbene over DCA-S”; at LSD6, “cell lysates containing LSD1, LSD5, LSD6, or LSD7 preferentially cleaved lignostilbene over DCA-S”; on LSD5, “cell lysates containing LSD1, LSD5, LSD6, or LSD7 preferentially cleaved lignostilbene over DCA-S”; at LSD7, “cell lysates containing LSD1, LSD5, LSD6, or LSD7 preferentially cleaved lignostilbene over DCA-S”; on LSD2, “The seven soluble enzymes all cleaved lignostilbene”; at LSD3, “The seven soluble enzymes all cleaved lignostilbene”.
